Data on 13 compounds can be found in patent US20220257596A1, “METHODS FOR TREATING MEIBOMIAN GLAND DYSFUNCTION WITH LIVER X RECEPTOR AGONISTS” (Novartis AG, priority 2019, published 2022).

Assay [1] has as its system SZ95 (immortalized human sebaceous gland cells) cells. As to the kind of experiment: Sentinel lipid assay (desaturation index in SZ95 sebocytes). In kind it is cell-based. The settings on record: for EC50: SZ95 cells, 72h incubation, top concentration 10 μM, desaturation index, read-out: SLA EC50; for Emax: percent compared to the reference compound (Compound H), 72h, read-out: SLA Amax. How it is done:
SZ95 (immortalized human sebaceous gland cells) cells were seeded in Greiner bio-one 96-well polypropylene plates that were pre-treated with 50 μg/ml Human Plasma Fibronectin (Thermo Fisher Scientific) at a density of 10^4 cells/135 μl. Cells were incubated in a humidified incubator with 5% CO2 at 37° C. overnight. Test compounds were diluted at a ratio of 1:3 and added to cells at final concentrations starting from 10 μM. Compound H was used as a positive control reference compound in each plate. Cells in the assay plate were incubated in a humidified incubator with 5% CO2 at 37° C. for 72h.
Culture medium was removed from the cells and cells in culture plates were washed with ice cold phosphate buffered saline three times. Plates were heat sealed and stored in a −80° C. freezer prior to Sentinel lipid assay.
Sentinel lipid assay: The sentinel lipid assay was used quantify the change in the global desaturation index in SZ95 sebocytes upon administration of LXR agonist compounds. The assay measures a smaller subset of lipid analytes in […] (termed “sentinel lipids”) which would model the global changes the population of both saturated and desaturated lipids in the cells. In order to define this smaller subset of lipids, a complete lipid profile was recorded on dose response curves (eight levels from 4 nM to 10 uM) of Compounds A-N. An elastic net regression model was applied separately to both the saturated and desaturated lipids to determine the minimum combination of coefficients and analytes which could be used to adequately model the total population of lipids. The elastic net model was able to reduce the behavior of 425 lipids to 11 lipids and the correlation between the desaturation indices observed using the complete set of lipids with from the 11 sentinel lipids was 0.96.
A medium throughput assay was created using this reduced set of sentinel lipids. A single batch is defined as triplicate examples of three unique plates (i.e., a single batch of cells is used to create nine plates for LC-MSMS analysis). Lipids were extracted from the cells using a 1:1 mixture of methylene chloride/methanol containing 10 nM of deuterated standards of triglycerides, which are used as internal standards for quantitating the lipid abundance. The lipids were separated prior to mass spectrometric analysis using a five minute HPLC gradient. The abundance of the sentinel lipids and the internal standards are measured using multiple reaction monitor mode (MRM) on a triple quadrupole mass spectrometer. The data was transformed from total ion current to nmoles/10^6 cells, which are multiplied by the coefficients from the elastic net model to determine the effective desaturated and saturated content, and therein the desaturation index of the dosed cells. In order to compare compounds from multiple batches with one another, the measure raw desaturation index was normalized by dividing it by the desaturation index of the DMSO dosed cells, and all data was assessed as the fraction by which the compound increases the desaturation index above 1. The Amax value refers to the percent […] of the tested compound compared to the reference compound.

For assay [2], the system named is SCD1 protein production in SZ95-SCD1-HiBit cells. Put plainly: Measurement of SCD1 expression in SZ95-SCD1-HiBit cells (HiBiT assay). In kind it is cell-based. To be noted: Homo sapiens; for EC50: SZ95-SCD1-HiBit cells, 48h incubation, top concentration 18 μM; for Emax: percent compared to the reference compound (Compound H), 48h, read-out: HiBit Amax. As for the experimental part:
SZ95-SCD1-HiBit cells were seeded in 384-well cell culture white plates at a density of 3000 cells/30 ul. Water is added to edge wells to avoid evaporation. Cells were incubated in a humidified incubator with 5% CO2 at 37° C. overnight. Tested compounds were diluted at a ratio of 1:3 using Agilent BRAVO Automated Liquid Handling Platform and added to cells at final concentrations starting from 18 μM. Compound H was used as a reference compound in each plate. Cells in the assay plate were incubated in a humidified incubator with 5% CO2 at 37° C. for 48h.
The assay plates were removed from the incubator and allowed to equilibrate to room temperature. Nano-Glo® HiBiT Detection Reagent (Promega; a mixture of Nano-Glo HiBiT Detection Buffer, Nano-Glo HiBiT Detection Substrate, and LgBiT protein) was added into assay plates, at a volume equal to cell culture medium in each well. Plates were placed on an orbital shaker at a speed of 300-600 rpm for 10 min at room temperature, and read on an EnVision Plate Reader using luminescence detection with a 1 second read time.
The assay measures the increase in SCD1 protein production in vitro. Amax refers to the percent […] of the tested compound compared to the reference compound.
On the technique in general: The HiBiT peptide binds its large partner to form an active luciferase.

Assay [3] is described as follows: In vivo measurement of lowered meibum melting temperature (DSC). Further details: species or system Sprague Dawley rats. To be noted: for Change of Tm: compound versus vehicle, rat meibum, DSC (method gives °C); for Mean ± SEM of Compound (meibum melting temperature): naive Sprague Dawley rats, 1% compound, DSC peak temperature (method gives °C), in °C; for Meibum melting temperature, in words: rat eyes, concentration of 1%, in comparison to vehicle. As for the experimental part: For specific compounds Compound B and Compound C, the lowering of rat meibum melting temperature was measured in naive Sprague Dawley rats. The test animals were administered either vehicle or Compound B or Compound C, the meibum collected upon administration of the compounds was analyzed by differential scanning calorimetry to measure the melting point. The lowering of meibum melting point in rats administered Compound B or Compound C were compared to vehicle.
Melting properties of meibum were obtained using differential scanning calorimetry thermograms, recorded on a TA Discovery Q5000 (ThermoAnalytical). Samples were sealed in standard 40 μl aluminum pans and subjected to a heat-cool-heat cycle with melting temperatures being recorded on the second heating ramp. The samples were first heated to 150° C. at 30K/min then cooled −30° C. at 30K/min. Next, the sample was heated to 75° C. with an underlying heating rate of 2K/min, a period of modulation of 60 seconds and a temperature amplitude of modulation of 1° C. Dry N2 gas, at a flow rate of 50 mL/min was used to purge the DSC equipment during the measurement. Onset of melting and peak temperatures were recorded with peak temperature quoted as the melting point.
Results from the assay are shown Table 3 and in FIGS. 1 and 2. Results were analyzed using an unpaired t test with Welch's correction.
In general terms: In DSC, transitions show as peaks or steps in heat flow.

`O=C(O)Cc1cccc(OCCCN(Cc2cccc(C(F)(F)F)c2Cl)CC(c2ccccc2)c2ccccc2)c1` [Compound H, 2-(3-(3-((2-chloro-3-(trifluoromethyl)benzyl)(2,2-diphenylethyl)amino)propoxy)phenyl)acetic acid]: in assay [1], the concentration giving a half-maximal response (EC50) amounted to 88.1 nM and the Emax is 97.4%. In assay [2], the EC50 amounted to 113 nM and the Emax was determined as 92%.
Turning to `C[C@H](CCOc1cccc(C(C)(C)C(=O)O)c1)N(Cc1cccc(C(F)(F)F)c1Cl)CC(c1ccccc1)c1ccccc1` [Compound C, (R)-2-(3-(3-((2-chloro-3-(trifluoromethyl)benzyl)(2,2-diphenylethyl)amino)butoxy)phenyl)-2-methylpropanoic acid], in assay [3], the “Change of Tm” value is reported as −1.513 ± 0.6575; the “Mean ± SEM of Compound (meibum melting temperature)” value is given as 30.68 ± 0.6065; the “Meibum melting temperature, in words” value is on record as “decrease in meibum melting temperature”. Moreover, in assay [1], the half-maximal effective concentration (EC50) worked out at 5.5 nM and the Emax was 90.7%. Besides, in assay [2], it took 0.9 nM to reach a half-maximal effect (EC50) and the Emax was 69.9%.
As to `CC(C)(C)N1C(=O)C(Nc2ccc(N3CCCCC3)cc2)=C(c2ccccc2)S1(=O)=O` [Compound B, 2-(tert-butyl)-5-phenyl-4-((4-(piperidin-1-yl)phenyl)amino)isothiazol-3(2H)-one 1,1-dioxide], in assay [3], the “Change of Tm” value is −1.534 ± 0.3522; the “Mean ± SEM of Compound (meibum melting temperature)” value is on record as 29.1 ± 0.2363; the “Meibum melting temperature, in words” value is recorded as “decrease in meibum melting temperature”. Further, in assay [1], the EC50 amounted to 168 nM and the Emax was found to be 92%. In assay [2], the response was half-maximal at 1.8 nM (EC50) and the Emax is 64%.
In the case of `CN(C)C(=O)c1ccc(N2CCC(C3CCN(S(=O)(=O)c4ccccc4Cl)CC3)CC2)cc1Cl` [Compound M, 2-chloro-4-(1′-((2-chlorophenyl)sulfonyl)-[4,4′-bipiperidin]-1-yl)-N,N-dimethylbenzamide], the EC50 in assay [1] was > 10000 nM; in assay [2] it was > 18000 nM. In addition, the Emax in assay [1] was determined as 29.2%; in assay [2], 39.1%.
For `CCCc1c(OCCCN(C)c2cnc(CC(=O)O)cn2)ccc2c(C(F)(F)F)noc12` [Compound E, 2-(5-(methyl(3-((7-propyl-3-(trifluoromethyl)benzo[d]isoxazol-6-yl)oxy)propyl)amino)pyrazin-2-yl)acetic acid], in that order: 69 nM, 29.4 nM, 81.8% and 77.9%.
As for `Fc1ccc(-c2c3cccc(C(F)(F)F)c3nn2Cc2ccc(F)cc2Cl)cc1` [Compound L, 2-(2-chloro-4-fluorobenzyl)-3-(4-fluorophenyl)-7-(trifluoromethyl)-2H-indazole], in assay [1], the half-maximal effective concentration (EC50) was > 10000 nM and the Emax turned out to be 33.3%. For the same compound, in assay [2], the EC50 is > 18000 nM and the Emax was determined as 48.4%.
The matching figures for `CCN(Cc1ccccc1)c1ccc(C(O)(C(F)(F)F)C(F)(F)F)cc1Cl` [Compound J, 2-(4-(benzyl(ethyl)amino)-3-chlorophenyl)-1,1,1,3,3,3-hexafluoropropan-2-ol]: 1470 nM, 58%, 323 nM and 77.5%.
The matching figures for `CC(C)[C@@H]1CN(c2ccc(CO)c(S(C)(=O)=O)c2)CCN1c1ncc(CO)c(C(F)(F)F)n1` [Compound D, (R)-(2-(4-(4-(hydroxymethyl)-3-(methylsulfonyl)phenyl)-2-isopropylpiperazin-1-yl)-4-(trifluoromethyl)pyrimidin-5-yl)methanol]: 41.8 nM, 65.6%, 2 nM and 66.2%.
Regarding `CN(C)C(=O)c1ccc(-c2cnc(N3CCN(C(=O)C(C)(C)c4ccccc4)CC3)c(C#N)c2)cc1Cl` [Compound K, 2-chloro-4-(5-cyano-6-(4-(2-methyl-2-phenylpropanoyl)piperazin-1-yl)pyridin-3-yl)-N,N-dimethylbenzamide], in assay [1], the concentration giving a half-maximal response (EC50) came out at 458 nM and the Emax was found to be 151%. In assay [2], the EC50 came to 538 nM and the Emax worked out at 66%.
The matching figures for `CC(C)[C@@H]1c2nc3cc(CO)c(S(C)(=O)=O)cc3n2CCN1c1ncc(C(C)(C)O)c(C(F)(F)F)n1` [Compound N, (R)-2-(2-(8-(hydroxymethyl)-1-isopropyl-7-(methylsulfonyl)-3,4-dihydrobenzo[4,5]imidazo[1,2-a]pyrazin-2(1H)-yl)-4-(trifluoromethyl)pyrimidin-5-yl)propan-2-ol]: 52 nM, 165%, 4 nM and 72.4%.
The matching figures for `O=S(=O)(c1ccccc1)N(CC(F)(F)F)c1ccc(C(O)(C(F)(F)F)C(F)(F)F)cc1` [Compound F, N-(4-(1,1,1,3,3,3-hexafluoro-2-hydroxypropan-2-yl)phenyl)-N-(2,2,2-trifluoroethyl)benzenesulfonamide]: 190 nM, 89.8%, 47.4 nM and 76.1%.
The matching figures for `O=C(O)Cn1ccc2c(OCCCN(Cc3cccc(C(F)(F)F)c3Cl)CC(c3ccccc3)c3ccccc3)cccc21` [Compound A, 2-(4-(3-((2-chloro-3-(trifluoromethyl)benzyl)(2,2-diphenylethyl)amino)propoxy)-1H-indol-1-yl)acetic acid]: 7.3 nM, 104%, 4.9 nM and 94%.
For the compound `CC(C)(O)c1cn(-c2ccc(-c3cc(F)c(CO)c(S(C)(=O)=O)c3)cc2F)c(C(C)(C)c2c(Cl)cccc2Cl)n1` [Compound I, 2-(2-(2-(2,6-dichlorophenyl)propan-2-yl)-1-(3,3′-difluoro-4′-(hydroxymethyl)-5′-(methylsulfonyl)-[1,1′-biphenyl]-4-yl)-1H-imidazol-4-yl)propan-2-ol], in assay [1], the concentration giving a half-maximal response (EC50) turned out to be 4520 nM and the Emax was 60.2%. In addition, in assay [2], the EC50 is > 18000 nM and the Emax was determined as 43.3%.

What is called EC50 is the concentration needed to bring the measured effect to its halfway point.
